Like-named read-outs stand apart in the source and are kept apart here.
Columns and labels:
Type in all cases: in vivo
Brassica napus (BRSNW) [1] = settings: crop plant compatibility, in comparison to untreated controls
In short: (§1)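 Crop injury rated visually in percent against untreated plants roughly 3 weeks after treatment (0% no effect, 100% plants dead). Compounds, as WP or EC with 0.5% additive in 600 l/ha water, were applied to the covering soil right after sowing; greenhouse growth. Suffixes a, b, c denote different dosages.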

Glycine max (GLXMA) [2] = settings: pre-emergence, crop plant compatibility, in comparison to untreated controls
In short: as §1

Oryza sativa (ORYSA) [3] = settings: pre-emergence, crop plant compatibility, in comparison to untreated controls
In short: as §1

[4] = tested on: Triticum aestivum (TRZAS); settings: pre-emergence, crop plant compatibility, in comparison to untreated controls
In short: as §1

Zea mays (ZEAMX) [5] = settings: pre-emergence, crop plant compatibility, in comparison to untreated controls
In short: as §1

Oryza sativa (ORYSA) [6] = settings: crop plant compatibility
In short: (§2)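 Effects were read visually as % versus untreated controls (0% = no effect, 100% = death) about 3 weeks post-treatment. Application was a post-emergence spray at the one-leaf stage of WP/EC formulations with 0.5% additive at 600 l/ha. Different dosages are denoted a, b and c.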

[7] = tested on: Triticum aestivum (TRZAS); settings: crop plant compatibility, effect vs untreated controls
In short: as §2

Zea mays (ZEAMX) [8] = settings: for Post-emergence action against ZEAMX in % (crop plant compatibility): 20 g/ha, effect in comparison to untreated controls; for Post-emergence action against ZEAMX in %: crop plant compatibility, effect vs untreated controls
In short: as §2

Glycine max (GLXMA) [9] = experiment: Post-emergence crop plant compatibility, GLXMA; settings: post-emergence, effect in comparison to untreated controls
In short: as §2

Brassica napus (BRSNW) [10] = experiment: Post-emergence crop plant compatibility, BRSNW; settings: effect in comparison to untreated controls
Procedure: Seeds of monocotyledonous and dicotyledonous weeds and crop plants are placed in sandy loam in plastic or organic planting pots, covered with soil and cultivated in a greenhouse under controlled growth conditions. 2 to 3 weeks after sowing, the test plants are treated at the one-leaf stage. The compounds of the invention, formulated in the form of wettable powders (WP) or as emulsion concentrates (EC), are then sprayed onto the green parts of the plants as aqueous suspension or emulsion with addition of 0.5% additive at a water application rate of 600 l/ha (converted). After the test plants have been kept in the greenhouse under optimum growth conditions for about 3 weeks, the activity of the preparations is rated visually in comparison to untreated controls. For example, 100% activity=the plants have died, 0% activity=like control plants.
The observed effects on selected crop plants are reported here in comparison to the untreated controls (values in %). The appendices “a”, “b” and “c” give differentiation by dosage used with otherwise the same crop plants tested.

[11] = tested on: Echinochloa crus-galli (ECHCG); experiment: Post-emergence herbicidal action against ECHCG; settings: dosage 320 g/ha
In short: (§3)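 Post-emergence greenhouse spray, one-leaf stage, 600 l/ha water plus 0.5% additive; WP or EC formulations; application rates 320 g/ha or lower. Visual % damage vs untreated controls at ~3 weeks.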

Setaria viridis (SETVI) [12] = experiment: Post-emergence herbicidal action against SETVI; settings: dosage 320 g/ha
In short: as §3

[13] = tested on: Verconica persica (VERPE); experiment: Post-emergence herbicidal action against VERPE; settings: 320 g/ha, VERPE
In short: as §3

Viola tricolor (VIOTR) [14] = experiment: Post-emergence herbicidal action against VIOTR; settings: 320 g/ha
In short: as §3

[15] = tested on: Alopecurus myosuroides (ALOMY); experiment: Pre-emergence herbicidal action against ALOMY; settings: 320 g/ha; scored visually after about 3 weeks; 100% = plants have died
In short: (§4)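 Pre-emergence soil-surface spray, WP/EC formulation, 0.5% additive, 600 l/ha water, rates of 320 g/ha or lower. Greenhouse, ~3 wk. Visual score, % of untreated control (100% = plants dead, 0% = like control).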

[16] = tested on: Amaranthus retroflexus (AMARE); experiment: Pre-emergence herbicidal action against AMARE; settings: 320 g/ha, visual scoring after about 3 weeks vs untreated controls
In short: as §4

Lolium rigidum (LOLRI) = experiment: Pre-emergence herbicidal action against LOLRI; settings: dosage 320 g/ha
In short: as §4

Setaria viridis (SETVI) [17] = experiment: Pre-emergence herbicidal action against SETVI; settings: dosage 320 g/ha
In short: as §4

[18] = tested on: Verconica persica (VERPE); experiment: Pre-emergence herbicidal action against VERPE; settings: dosage 320 g/ha
In short: as §4

Viola tricolor (VIOTR) [19] = experiment: Pre-emergence herbicidal action against VIOTR; settings: 320 g/ha, Viola tricolor
In short: as §4

[20] = tested on: Amaranthus retroflexus (AMARE); experiment: Post-emergence herbicidal action against AMARE; settings: 80 g/ha, visual rating about 3 weeks after treatment vs untreated controls (100% = plants have died, 0% = like control plants)
In short: as §3

[21] = tested on: Digitaria sanguinalis (DIGSA); experiment: Pre-emergence herbicidal action against DIGSA
In short: as §4

[22] = tested on: Polygonum convolvulus (POLCO); experiment: Pre-emergence herbicidal action against POLCO; settings: dosage 320 g/ha
In short: as §4

[23] = 20 g/ha, effect vs untreated controls
[24] = 80 g/ha, effect in comparison to untreated controls
[25] = 320 g/ha, effect in comparison to untreated controls

Compound | Pre-emergence action against BRSNW in % (Brassica napus (BRSNW) [1]; 80 g/ha) [%] | Pre-emergence action against BRSNW in % (Brassica napus (BRSNW) [1]; 320 g/ha) [%] | Pre-emergence action against GLXMA in % (Glycine max (GLXMA) [2]; 80 g/ha) [%] | Pre-emergence action against GLXMA in % (Glycine max (GLXMA) [2]; 320 g/ha) [%] | Pre-emergence action against ORYSA in % (Oryza sativa (ORYSA) [3]; 80 g/ha) [%] | Pre-emergence action against ORYSA in % (Oryza sativa (ORYSA) [3]; 320 g/ha) [%] | Pre-emergence action against TRZAS in % ([4]; 80 g/ha) [%] | Pre-emergence action against ZEAMX in % (Zea mays (ZEAMX) [5]; 80 g/ha) [%] | Pre-emergence action against ZEAMX in % (Zea mays (ZEAMX) [5]; 320 g/ha) [%] | Post-emergence action against ORYSA in % (Oryza sativa (ORYSA) [6]; [23]) [%] | Post-emergence action against ORYSA in % (Oryza sativa (ORYSA) [6]; [24]) [%] | Post-emergence action against TRZAS in % ([7]; 20 g/ha) [%] | Post-emergence action against TRZAS in % ([7]; 80 g/ha) [%] | Post-emergence action against ZEAMX in % (crop plant compatibility) (Zea mays (ZEAMX) [8]) [%] | Post-emergence action against ZEAMX in % (Zea mays (ZEAMX) [8]; 80 g/ha) [%] | Post-emergence action against GLXMA in % (Glycine max (GLXMA) [9]; 20 g/ha) [%] | Post-emergence action against GLXMA in % (Glycine max (GLXMA) [9]; 80 g/ha) [%] | Post-emergence action against BRSNW in % (Brassica napus (BRSNW) [10]; 20 g/ha) [%] | Post-emergence action against BRSNW in % (Brassica napus (BRSNW) [10]; 80 g/ha) [%] | Pre-emergence action against TRZAS in % ([4]; 320 g/ha) [%] | further results
COC(=O)CN(C)C(=O)COc1nn(-c2ccnc(Cl)c2)c(-c2ccc(F)nc2)c1Br [III-21] | 20 | 20 | 0 | 0 | 0 | 0 | 20 | 0 | 20 | 0 | 20 | 0 | 0 | 0 | 0 | 0 | 0 | 0 | 0 |  | 
COC(=O)CNC(=O)COc1nn(-c2cccnc2C)c(-c2cncc(F)c2)c1Br [II-37] |  |  |  |  |  |  |  |  |  | 0 | 0 | 0 | 0 | 0 | 0 | 0 |  | 0 |  |  | Post-emergence action against ECHCG in % [11]: 80%; Post-emergence action against SETVI in % (Setaria viridis (SETVI) [12]): 80%; Post-emergence action against VERPE in % [13]: 90%; Post-emergence action against VIOTR in % (Viola tricolor (VIOTR) [14]): 80%; Post-emergence action against ORYSA in % (Oryza sativa (ORYSA) [6]; [25]): 0%; Post-emergence action against TRZAS in % ([7]; 320 g/ha): 0%; Post-emergence action against ZEAMX in % (Zea mays (ZEAMX) [8]; 320 g/ha): 0%
O=C(COc1nn(-c2ccnc(Cl)c2)c(-c2ccc(F)nc2)c1Br)NS(=O)(=O)CC(F)(F)F [III-20] | 0 |  |  | 20 | 0 | 10 | 0 | 0 | 0 | 0 | 0 | 0 | 0 | 0 |  | 0 | 0 | 0 |  | 0 | 
COC(=O)CNC(=O)COc1nn(-c2ccccn2)c(-c2ccc(F)nc2)c1C1CC1 [Example I-70] | 20 |  | 10 |  | 0 | 10 | 10 | 0 | 0 | 0 | 0 | 0 | 10 | 0 | 10 |  |  | 20 |  |  | Pre-emergence action against ALOMY [15]: 90%; Pre-emergence action against AMARE in % [16]: 90%; Pre-emergence action against LOLRI in % (Lolium rigidum (LOLRI)): 90%; Pre-emergence action against SETVI in % (Setaria viridis (SETVI) [17]): 90%; Pre-emergence action against VERPE in % [18]: 80%; Pre-emergence action against VIOTR in % (Viola tricolor (VIOTR) [19]): 90%; Post-emergence action against AMARE in % [20]: 90%
C[C@@H](Oc1nn(-c2ncccc2F)c(-c2ccc(F)nc2)c1Br)C(=O)O [Example I-50] | 0 | 20 |  |  |  |  | 10 | 0 | 0 | 10 | 10 | 10 | 10 | 0 | 0 | 0 | 10 | 10 | 20 | 10 | 
CCOC(=O)C(Oc1nn(-c2ccccn2)c(-c2ccc(F)nc2)c1Br)C(C)C (centres unmarked) [Example I-349] |  |  | 0 | 10 |  |  | 10 | 10 | 20 |  | 0 |  |  |  |  |  | 0 |  | 20 |  | Pre-emergence action against DIGSA in % ([21]; 80 g/ha, visual scoring after about 3 weeks vs untreated controls): 80%; Pre-emergence action against DIGSA in % ([21]; dosage 320 g/ha): 90%; Pre-emergence action against POLCO in % [22]: 80%; Pre-emergence action against VIOTR in % (Viola tricolor (VIOTR) [19]): 80%; Post-emergence action against VIOTR in % (Viola tricolor (VIOTR) [14]): 80%; Post-emergence action against ORYSA in % (Oryza sativa (ORYSA) [6]; [25]): 10%
COC(=O)C1CCN(C(=O)COc2nn(-c3ccccn3)c(-c3ccc(F)nc3)c2Br)C1 (centres unmarked) [Example I-109] | 10 | 10 | 20 | 20 | 10 | 10 | 0 | 10 | 10 | 0 | 0 | 0 | 10 | 10 | 10 |  |  | 0 | 10 | 10 | 

From patent US20240041042A1, “1-(PYRIDYL)-5-AZINYLPYRAZOLE DERIVATIVES, AND THEIR USE FOR CONTROL OF UNDESIRED PLANT GROWTH” (Bayer Aktiengesellschaft, priority 2020, published 2024)
